The source of these data is patent publication US7494976B2, “Caveolin peptides and their use as therapeutics” (Yale University, priority 2000, dated 2009).

Entries after “also recorded” stand apart in the source; their conditions may differ. Ends that are not written are not given here. Peptide text beside a SMILES is read from it.

For one data set, the system named is mouse aorta. Description: Uptake of biotinylated peptides into the vessel wall of mouse aorta. To be noted: biotinylated peptides 100 μM, twenty hours, HRP staining. How it is done: The uptake of AP-Cav into the vessel wall was examined next. A biotinylated version of AP-Cav and AP-Cav-X was synthesized. After twenty hours of incubation with the biotinylated peptides (100 μM) or vehicle, rings were placed in a dish and washed twice with PBS (twenty minutes each time) with light shaking, in order to eliminate the excess of biopeptide that could deposit over the tissue. Then the rings were embedded in OCT medium and cross sections ([…] thickness) were obtained for staining with an avidin-horseradish peroxidase complex and reactivity was detected with 3-amino-9-ethylcarbazole (AEC).

The test system of the next data set is prostacyclin production. As to the kind of experiment: Prostacyclin release from mouse aortic rings (6-keto-PGF1α by EIA). The note with it: ibuprofen 10 μM. How it is done:
To further test the specificity of AP-Cav, Ach-induced prostacyclin production was measured. For measurement of prostacyclin release, after twenty hour incubation period, aortic segments (4-5 mm) were placed in sterile 48-well tissue culture plates with 300 μl of KHS at 37° C. for thirty minutes in an incubator. Then aliquots of […] were taken in order to measure the basal release of prostacyclin. Ach (1 μM) was added and the plate was kept in the incubator for an additional thirty minutes. Aliquots were then taken in order to measure the Ach-stimulated release of prostacyclin. This protocol was performed in absence or in presence of ibuprofen (10 μM). The aliquots were frozen and prostacyclin release was measured as the stable breakdown product, 6-keto-PGF1α, by EIA (Amersham).

Another data set relates to isolated mouse aortas. As to the kind of experiment: Sodium nitroprusside induced (endothelium independent) relaxation of mouse aorta. To be noted: AP 30 μM, twenty hours; SNP 10 μM.
A further data set has as its system isolated mouse aorta. As to the kind of experiment: Ach-induced relaxation of isolated mouse aortic rings (organ bath). The note with it: AP alone 30 μM, twenty hours incubation. The protocol: For isolated mouse aortic rings preparations, male C57 black mice (5-7 weeks of age) were anesthetized with methoxyflurane and sacrificed by exsanguination. The thoracic aorta was dissected and cut into cylindrical segments of three millimeters in length. Using a sterile 48-well tissue culture plate, each ring was incubated in a total volume of one ml with either peptides or vehicle (DMSO) diluted in DMEM supplemented with penicillin (100 units/ml), streptomycin (100 μg/ml) and L-glutamine (1 mM). The plate was incubated with 5% CO2. Following incubation with the peptides (one, six, twelve or twenty hours), rings were washed in oxygenated (95% O2-5% CO2) Krebs-Henseleit bicarbonate buffer solution (KHS) of the following composition (NaCl—118.3 mmol/L, KCl—4.7 mmol/L, CaCl2—2.5 mmol/L, MgSO4—1.2 mmol/L, KH2PO4—1.2 mmol/L, NaHCO3—25 mmol/L, glucose—5.6 mmol/L at 37° C. with ibuprofen (10 μM). The rings were suspended by two tungsten wires ([…] thickness) inserted into the lumen and mounted in a vessel myograph system (five ml chamber, Kent Scientific). The mouse aortas were submitted to a resting tension of 1.5 grams and isometric tension was recorded using a force transducer coupled to a MacLab data acquisition system. […] In some experiments concentration-response curves to the contractile effects of PE were monitored.

The nature of data set [1]: Systemic arterial blood pressure and heart rate in mice. In kind it is in vivo, mouse.
Where [2] appears, read: conditions of the edema study, n=4 mice.

`CC[C@H](C)[C@H](NC(=O)CNC(=O)[C@H](Cc1c[nH]c2ccccc12)NC(=O)[C@H](CCCCN)NC(=O)[C@H](CCCCN)NC(=O)[C@H](Cc1c[nH]c2ccccc12)NC(=O)[C@H](CCCCN)NC(=O)[C@H](CCSC)NC(=O)[C@H](CCCNC(=N)N)NC(=O)[C@H](CCCNC(=N)N)NC(=O)[C@H](CC(N)=O)NC(=O)[C@H](CCC(N)=O)NC(=O)[C@H](Cc1ccccc1)NC(=O)[C@H](Cc1c[nH]c2ccccc12)NC(=O)[C@@H](NC(=O)[C@H](CCCCN)NC(=O)[C@@H](NC(=O)[C@H](CCC(N)=O)NC(=O)[C@H](CCCNC(=N)N)NC(=O)CCCCCNC(=O)CCCC[C@@H]1SC[C@@H]2NC(=O)N[C@@H]21)[C@@H](C)CC)[C@@H](C)CC)C(=O)N[C@@H](CC(=O)O)C(=O)N[C@@H](CCCCN)C(=O)N[C@@H](C)C(=O)N[C@@H](Cc1ccccc1)C(=O)N[C@@H](Cc1ccccc1)C(=O)N[C@H](C(=O)N[C@H](C(=O)N[C@@H](CO)C(=O)N[C@H](C(=O)N[C@H](C(=O)N[C@H](C(=O)N[C@@H](Cc1ccc(O)cc1)C(=O)N[C@@H](CCCCN)C(=O)N[C@@H](Cc1c[nH]c2ccccc12)C(=O)N[C@@H](Cc1ccccc1)C(=O)N[C@@H](CCCNC(=N)N)C(=O)N[C@@H](Cc1ccc(O)cc1)C(=O)O)[C@@H](C)O)C(C)C)[C@@H](C)O)[C@@H](C)O)[C@@H](C)O` [Biot-AP-Cav-X] (HELM PEPTIDE1{[O=C1N[C@H]2[C@H](CS[C@H]2CCCCC(=O)[*:2])N1].[O=C(CCCCCN[*:1])[*:2]].R.Q.I.K.I.W.F.Q.N.R.R.M.K.W.K.K.W.G.I.D.K.A.F.F.T.T.S.T.V.T.Y.K.W.F.R.Y}$$$$V2.0; N-terminus and C-terminus assumed): the “uptake into the vessel wall” value in the data set with mouse aorta is “uptake of both AP-Cav and AP-Cav-X into the endothelium and adventitial lining of the vessel”.
Consider `CC[C@H](C)[C@H](NC(=O)CNC(=O)[C@H](CC(=O)O)NC(=O)[C@H](CCCCN)NC(=O)[C@H](CCCCN)NC(=O)[C@H](Cc1c[nH]c2ccccc12)NC(=O)[C@H](CCCCN)NC(=O)[C@H](CCSC)NC(=O)[C@H](CCCNC(=N)N)NC(=O)[C@H](CCCNC(=N)N)NC(=O)[C@H](CC(N)=O)NC(=O)[C@H](CCC(N)=O)NC(=O)[C@H](Cc1ccccc1)NC(=O)[C@H](Cc1c[nH]c2ccccc12)NC(=O)[C@@H](NC(=O)[C@H](CCCCN)NC(=O)[C@@H](NC(=O)[C@H](CCC(N)=O)NC(=O)[C@H](CCCNC(=N)N)NC(=O)CCCCCNC(=O)CCCC[C@@H]1SC[C@@H]2NC(=O)N[C@@H]21)[C@@H](C)CC)[C@@H](C)CC)C(=O)N[C@@H](Cc1c[nH]c2ccccc12)C(=O)N[C@@H](CCCCN)C(=O)N[C@@H](C)C(=O)N[C@@H](CO)C(=O)N[C@@H](Cc1ccccc1)C(=O)N[C@H](C(=O)N[C@H](C(=O)N[C@@H](Cc1ccccc1)C(=O)N[C@H](C(=O)N[C@H](C(=O)N[C@H](C(=O)N[C@@H](CCCCN)C(=O)N[C@@H](Cc1ccc(O)cc1)C(=O)N[C@@H](Cc1c[nH]c2ccccc12)C(=O)N[C@@H](Cc1ccccc1)C(=O)N[C@@H](Cc1ccc(O)cc1)C(=O)N[C@@H](CCCNC(=N)N)C(=O)O)[C@@H](C)O)C(C)C)[C@@H](C)O)[C@@H](C)O)[C@@H](C)O` [Biot-AP-Cav] (HELM PEPTIDE1{[O=C1N[C@H]2[C@H](CS[C@H]2CCCCC(=O)[*:2])N1].[O=C(CCCCCN[*:1])[*:2]].R.Q.I.K.I.W.F.Q.N.R.R.M.K.W.K.K.D.G.I.W.K.A.S.F.T.T.F.T.V.T.K.Y.W.F.Y.R}$$$$V2.0; N-terminus and C-terminus assumed), for which the “uptake into the vessel wall” value in the data set with mouse aorta is “uptake of both AP-Cav and AP-Cav-X into the endothelium and adventitial lining of the vessel”.
For `CC(C)Cc1ccc(C(C)C(=O)O)cc1` (centres unmarked) [ibuprofen], the “Ach-induced prostacyclin production (6-keto-PGF1α)” value in the data set on prostacyclin production is “abolished”.
On to “AP: Antennapedia internalization sequence (RQIKIWFQNRRMKWKK), SEQ ID NO: 10, alone (Drosophila melanogaster; DOMAIN (1)..(16) Homeodomain, internalization sequence)”, for which, in the data set on isolated mouse aortas, the “effect on vasorelaxant properties of sodium nitroprusside” value was “had no effect”. The “effect on Ach-induced relaxation” value with isolated mouse aorta is “did not influence Ach-induced relaxation; also recorded: does not affect Ach induced relaxations”.
For “RQIKIWFQNRRMKWKKDGIWKASFTTFTVTKYWFYR [AP-Cav]”, in data set [1] (setting [2]), the heart rate stood at 320±29 beats per minute and the “systemic arterial blood pressure” value came out at 80±7 mm Hg. Further, the “effect on blood pressure when delivered in vivo” value in data set [1] (preliminary evidence) is on record as “do not increase blood pressure”.
